In US6465429B1, “Antimicrobial cationic peptides” (priority 1995, dated 2002):

Columns and labels:
X. maltophila = assay: Synergy of peptide and antibiotic, MIC and FIC (checkerboard); type: cell-based; conditions: agent alone
Description: (§1) FICs are performed by checkerboard titrations of peptides in one dimension of a microtiter plate, and of antibiotics in the other dimension, for example. The FIC is calculated by looking at the impact of one antibiotic on the MIC of the other and vice versa. […] Preferably, an FIC of less than 0.5 is obtained for synergism. As used herein, FIC can be determined as follows: [formula]
(§2) Synergism is identified as an FIC of about ≦0.5.

E. cloacae = assay: as above; type: cell-based; conditions: Enterobacter cloacae, agent alone
Description: as §1, §2

A. calcoaceticus = assay: as above; type: cell-based; conditions: Acinetobacter calcoaceticus, agent alone
Description: as §1, §2

P. aeruginosa = assay: microbe, parasite or virus in culture; conditions: Pseudomonas aeruginosa, agent alone
Description: as §1, §2

[1] = X. maltophila isolate 35, strain 6
[2] = X. maltophila isolate 36, strain 16
[3] = X. maltophila isolate 37, strain 3095
[4] = X. maltophila isolate 40, strain R1302-1
[5] = X. maltophila isolate 41, strain R4230
[6] = X. maltophila isolate 42, strain TF29-1
[7] = X. maltophila isolate 43, strain TF29-2
[8] = X. maltophila isolate 44, strain W6896-2
[9] = E. cloacae isolate 12, strain ATCC 13047
[10] = E. cloacae isolate 13, strain 37-1
[11] = E. cloacae isolate 14, strain 938-2
[12] = E. cloacae isolate 15, strain B5546
[13] = E. cloacae isolate 16, strain R4148
[14] = E. cloacae isolate 17, strain R4148-2
[15] = E. cloacae isolate 18, strain 3077
[16] = E. cloacae isolate 19, strain 3356
[17] = E. cloacae isolate 20, strain 14269
[18] = E. cloacae isolate 21, strain 14661
[19] = E. cloacae isolate 22, strain 18801
[20] = A. calcoaceticus isolate 1, strain ATCC 23055
[21] = A. calcoaceticus isolate 4, strain 28
[22] = A. calcoaceticus isolate 5, strain 8220
[23] = A. calcoaceticus isolate 6, strain 8221
[24] = A. calcoaceticus isolate 7, strain 8222
[25] = A. calcoaceticus isolate 8, strain 8223
[26] = A. calcoaceticus isolate 9, strain 8224
[27] = A. calcoaceticus isolate 2, strain 23
[28] = P. aeruginosa isolate 23, strain ATCC 27853
[29] = P. aeruginosa isolate 24, strain 34
[30] = P. aeruginosa isolate 25, strain 923-1
[31] = P. aeruginosa isolate 26, strain 3101
[32] = P. aeruginosa isolate 27, strain 14644
[33] = P. aeruginosa isolate 28, strain 15036
[34] = P. aeruginosa isolate 29, strain 15545
[35] = P. aeruginosa isolate 30, strain B3999-1

Row | SMILES | MIC (X. maltophila; [1]) [µg/mL] | MIC (X. maltophila; [2]) [µg/mL] | MIC (X. maltophila; [3]) [µg/mL] | MIC (X. maltophila; [4]) [µg/mL] | MIC (X. maltophila; [5]) [µg/mL] | MIC (X. maltophila; [6]) [µg/mL] | MIC (X. maltophila; [7]) [µg/mL] | MIC (X. maltophila; [8]) [µg/mL] | MIC (E. cloacae; [9]) [µg/mL] | MIC (E. cloacae; [10]) [µg/mL] | MIC (E. cloacae; [11]) [µg/mL] | MIC (E. cloacae; [12]) [µg/mL] | MIC (E. cloacae; [13]) [µg/mL] | MIC (E. cloacae; [14]) [µg/mL] | MIC (E. cloacae; [15]) [µg/mL] | MIC (E. cloacae; [16]) [µg/mL] | MIC (E. cloacae; [17]) [µg/mL] | MIC (A. calcoaceticus; [21]) [µg/mL] | MIC (P. aeruginosa; [32]) [µg/mL] | MIC (P. aeruginosa; [33]) [µg/mL] | also measured
1 | CC(C)(O/N=C(\C(=O)N[C@@H]1C(=O)N2C(C(=O)[O-])=C(C[n+]3ccccc3)CS[C@H]12)c1csc(N)n1)C(=O)O [Ceftazidime] | 64 | 32 | 512 | 16 | 4 | 4 | 4 | 64 | 4 | 2 | 2 | 2 | 512 | 512 | 2 | 128 | 512 | 16 | 128 | 2 | MIC (X. maltophila; X. maltophila isolate 34, strain ATCC 13637): 64 µg/mL; MIC (X. maltophila; X. maltophila isolate 39, strain B3110.1): 64 µg/mL; MIC (E. cloacae; [18]): 512 µg/mL; MIC (E. cloacae; [19]): 2 µg/mL; MIC (A. calcoaceticus; [20]): 2 µg/mL; MIC (A. calcoaceticus; [22]): 16 µg/mL; MIC (A. calcoaceticus; [23]): 8 µg/mL; MIC (A. calcoaceticus; [24]): 16 µg/mL; MIC (A. calcoaceticus; [25]): 16 µg/mL; MIC (A. calcoaceticus; [26]): 64 µg/mL; MIC (A. calcoaceticus; [27]): 128 µg/mL; MIC (P. aeruginosa; [28]): 32 µg/mL; MIC (P. aeruginosa; [29]): 32 µg/mL; MIC (P. aeruginosa; [30]): 4 µg/mL; MIC (P. aeruginosa; [31]): 8 µg/mL; MIC (P. aeruginosa; [34]): 8 µg/mL; MIC (P. aeruginosa; [35]): 16 µg/mL; MIC (P. aeruginosa; P. aeruginosa isolate 33, strain W5483-2): 8 µg/mL
2 | O=C(O)c1cn(C2CC2)c2cc(N3CCNCC3)c(F)cc2c1=O [Ciprofloxacin] | 4 | 8 | 16 | 4 | 4 | 8 | 8 | 4 |  |  |  |  |  |  |  |  |  | 8 | 32 | 16 | MIC (X. maltophila; X. maltophila isolate 38, strain 7901): 32 µg/mL; MIC (X. maltophila; X. maltophila isolate 45, strain W11291): 4 µg/mL; MIC (A. calcoaceticus; A. calcoaceticus isolate 3, strain 27): 8 µg/mL
3 | C[C@@H](O)[C@H]1C(=O)N2C(C(=O)O)=C(SCCN=CN)C[C@H]12 [Imipenem] |  |  |  |  |  |  |  |  | 1 | 2 | 4 | 2 | 4 | 2 | 4 | 4 | 4 | 16 | 16 | 16 | MIC (E. cloacae; [18]): 2 µg/mL; MIC (E. cloacae; [19]): 2 µg/mL; MIC (A. calcoaceticus; [20]): 2 µg/mL; MIC (A. calcoaceticus; [22]): 2 µg/mL; MIC (A. calcoaceticus; [23]): 1 µg/mL; MIC (A. calcoaceticus; [24]): 4 µg/mL; MIC (A. calcoaceticus; [25]): 2 µg/mL; MIC (A. calcoaceticus; [26]): 2 µg/mL; MIC (A. calcoaceticus; A. calcoaceticus isolate 10, strain 8225): 2 µg/mL; MIC (A. calcoaceticus; A. calcoaceticus isolate 11, strain 8226): 4 µg/mL; MIC (A. calcoaceticus; [27]): 512 µg/mL; MIC (P. aeruginosa; [28]): 8 µg/mL; MIC (P. aeruginosa; [29]): 512 µg/mL; MIC (P. aeruginosa; [30]): 4 µg/mL; MIC (P. aeruginosa; [31]): 8 µg/mL; MIC (P. aeruginosa; [34]): 256 µg/mL; MIC (P. aeruginosa; [35]): 256 µg/mL
